Measurements taken from patent US6737383B1, “Herbicidal oxadiazolidines” (priority 1999, dated 2004).

Tests used:
blackgrass = experiment: Test B pre/postemergence blackgrass; type: in vivo, Alopecurus myosuroides
In short: (§1)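 Test chemicals in a non-phytotoxic solvent mixture with surfactant were sprayed preemergence onto planted seeds and postemergence onto plants 2 to 18 cm tall (1- to 4-leaf stage). After twelve to sixteen days in a greenhouse, injury was visually rated against untreated controls from 0 (no effect) to 10 (complete control).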

cocklebur = experiment: Test B pre/postemergence cocklebur; type: in vivo, Xanthium strumarium
In short: as §1

corn = experiment: Test B pre/postemergence corn; type: in vivo, Zea mays
In short: as §1

crabgrass = experiment: Test B pre/postemergence crabgrass; type: in vivo, Digitaria sanguinalis
In short: as §1

giant foxtail = experiment: Test B pre/postemergence giant foxtail; type: in vivo, Setaria faberii
In short: as §1

morningglory = experiment: Test B pre/postemergence morningglory; type: in vivo, Ipomoea hederacea
In short: as §1

pigweed = experiment: Test B pre/postemergence pigweed; type: in vivo, Amaranthus retroflexus
In short: as §1

rape = experiment: Test B pre/postemergence rape; type: in vivo, Brassica napus
In short: as §1

soybean = experiment: Test B pre/postemergence soybean; type: in vivo, Glycine max
In short: as §1

sugar beet = experiment: Test B pre/postemergence sugar beet; type: in vivo, Beta vulgaris
In short: as §1

velvetleaf = experiment: Test B pre/postemergence velvetleaf; type: in vivo, Abutilon theophrasti
In short: as §1

wheat = experiment: Test B pre/postemergence wheat; type: in vivo, Triticum aestivum
In short: as §1

purple nutsedge = experiment: Test B pre/postemergence purple nutsedge; type: in vivo, Cyperus rotundus
In short: as §1

smallflower flatsedge = experiment: Test B flood test smallflower flatsedge; type: in vivo, Cyperus difformis
In short: (§2)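 Plants were grown to the 2-leaf stage before treatment with test chemical, then held in a greenhouse for twelve to sixteen days. Injury was visually rated against untreated controls on a 0–10 scale, where 0 is no effect and 10 is complete control.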

duck salad = experiment: Test B flood test duck salad; type: in vivo, Heteranthera limosa
In short: as §2

[1] = Postemergence, Rate 62 g/ha, scale of 0 to 10, 0 is no effect, 10 is complete control
[2] = Postemergence, Rate 125 g/ha, scale 0 to 10, 0 is no effect, 10 is complete control
[3] = Postemergence, Rate 500 g/ha, scale 0 to 10, 0 is no effect, 10 is complete control
[4] = Preemergence, Rate 62 g/ha, scale 0 to 10 (0 no effect, 10 complete control)
[5] = Preemergence, Rate 125 g/ha, scale 0 to 10, 0 is no effect, 10 is complete control
[6] = Preemergence, Rate 500 g/ha, scale of 0 to 10 where 0 is no effect and 10 is complete control
[7] = Rate 250 g/ha, Postemergence, scale of 0 to 10 where 0 is no effect and 10 is complete control
[8] = Rate 62 g/ha, flood test species, Pre-emergence, visual evaluation after twelve to sixteen days
[9] = Rate 125 g/ha, under heading Pre-emergence, flood test species, visual evaluation after twelve to sixteen days
[10] = Rate 250 g/ha, Pre-emergence (flood test species), scale 0 to 10, 0 is no effect, 10 is complete control
[11] = Rate 500 g/ha, Pre-emergence section of Table B, 0 to 10 scale (0 no effect, 10 complete control)

In the case of CCC=CCn1c(=O)on(C(=O)N(c2ccc(Cl)cc2)C(C)C)c1=O [Compound 552], the “Blackgrass plant response rating” value (blackgrass; [1]) is reported as 0, the “Blackgrass plant response rating” value (blackgrass; [2]) is reported as 0 and the “Plant response rating, Blackgrass” value (blackgrass; [3]) is reported as 7. For the same compound, the “Blackgrass plant response rating” value (blackgrass; [4]) was 0, the “Blackgrass plant response rating” value (blackgrass; [5]) was 0 and the “Blackgrass plant response rating (0 to 10 scale)” value (blackgrass; Preemergence, Rate 250 g/ha) was 0. For the same compound, the “Blackgrass plant response rating” value (blackgrass; [6]) was 8, the “Plant response rating, Blackgrass” value (blackgrass; [7]) was 0 and the “Cocklebur plant response rating” value (cocklebur; [1]) was 0. The “Cocklebur plant response rating” value (cocklebur; [2]) was 0, the “Plant response rating, Cocklebur” value (cocklebur; [3]) was 4 and the “Cocklebur plant response rating” value (cocklebur; [4]) was 0. For the same compound, the “Cocklebur plant response rating” value (cocklebur; [5]) was 0, the “Cocklebur plant response rating (0 to 10 scale)” value (cocklebur; Preemergence, Rate 250 g/ha) was 0 and the “Cocklebur plant response rating” value (cocklebur; [6]) was 0. For the same compound, the “Plant response rating, Cocklebur” value (cocklebur; [7]) was 2, the “Corn plant response rating” value (corn; [1]) was 0 and the “Corn plant response rating” value (corn; [2]) was 0. For the same compound, the “Plant response rating, Corn” value (corn; [3]) was 0, the “Corn plant response rating” value (corn; [4]) was 0 and the “Corn plant response rating” value (corn; [5]) was 0. The “Corn plant response rating (0 to 10 scale)” value (corn; Preemergence, Rate 250 g/ha) was 0, the “Corn plant response rating” value (corn; [6]) was 0 and the “Plant response rating, Corn” value (corn; [7]) was 0. For the same compound, the “Crabgrass plant response rating” value (crabgrass; [1]) was 3, the “Crabgrass plant response rating” value (crabgrass; [2]) was 9 and the “Plant response rating, Crabgrass” value (crabgrass; [3]) was 9. For the same compound, the “Crabgrass plant response rating” value (crabgrass; [4]) was 9, the “Crabgrass plant response rating” value (crabgrass; [5]) was 9 and the “Crabgrass plant response rating (0 to 10 scale)” value (crabgrass; Preemergence, Rate 250 g/ha) was 8. For the same compound, the “Crabgrass plant response rating” value (crabgrass; [6]) was 10, the “Giant foxtail plant response rating” value (giant foxtail; [1]) was 0 and the “Giant foxtail plant response rating” value (giant foxtail; [2]) was 3. The “Plant response rating, Giant foxtail” value (giant foxtail; [3]) was 7, the “Giant foxtail plant response rating” value (giant foxtail; [4]) was 9 and the “Giant foxtail plant response rating” value (giant foxtail; [5]) was 10. For the same compound, the “Giant foxtail plant response rating (0 to 10 scale)” value (giant foxtail; Preemergence, Rate 250 g/ha) was 10, the “Giant foxtail plant response rating” value (giant foxtail; [6]) was 10 and the “Plant response rating, Giant foxtail” value (giant foxtail; [7]) was 3. For the same compound, the “Morningglory plant response rating” value (morningglory; [1]) was 1, the “Morningglory plant response rating” value (morningglory; [2]) was 1 and the “Plant response rating, Morningglory” value (morningglory; [3]) was 7. The “Morningglory plant response rating” value (morningglory; [4]) was 0, the “Morningglory plant response rating” value (morningglory; [5]) was 0 and the “Morningglory plant response rating (0 to 10 scale)” value (morningglory; Preemergence, Rate 250 g/ha) was 0. For the same compound, the “Morningglory plant response rating” value (morningglory; [6]) was 0, the “Plant response rating, Morningglory” value (morningglory; [7]) was 2 and the “Redroot pigweed plant response rating” value (pigweed; [1]) was 0. For the same compound, the “Plant response rating, Redroot pigweed” value (pigweed; [3]) was 3, the “Redroot pigweed plant response rating” value (pigweed; [4]) was 0 and the “Redroot pigweed plant response rating” value (pigweed; [5]) was 4. The “Redroot pigweed plant response rating (0 to 10 scale)” value (pigweed; Preemergence, Rate 250 g/ha) was 4, the “Redroot pigweed plant response rating” value (pigweed; [6]) was 4 and the “Plant response rating, Redroot pigweed” value (pigweed; [7]) was 0. For the same compound, the “Rape plant response rating” value (rape; [1]) was 2, the “Rape plant response rating” value (rape; [2]) was 6 and the “Plant response rating, Rape” value (rape; [3]) was 7. For the same compound, the “Rape plant response rating” value (rape; [4]) was 0, the “Rape plant response rating” value (rape; [5]) was 0 and the “Rape plant response rating (0 to 10 scale)” value (rape; Preemergence, Rate 250 g/ha) was 0. For the same compound, the “Rape plant response rating” value (rape; [6]) was 0, the “Plant response rating, Rape” value (rape; [7]) was 4 and the “Soybean plant response rating” value (soybean; [1]) was 2. The “Plant response rating, Soybean” value (soybean; [3]) was 3, the “Soybean plant response rating” value (soybean; [4]) was 0 and the “Soybean plant response rating” value (soybean; [5]) was 0. For the same compound, the “Soybean plant response rating (0 to 10 scale)” value (soybean; Preemergence, Rate 250 g/ha) was 0, the “Soybean plant response rating” value (soybean; [6]) was 0 and the “Plant response rating, Soybean” value (soybean; [7]) was 3. For the same compound, the “Sugarbeets plant response rating” value (sugar beet; [1]) was 0, the “Plant response rating, Sugarbeets” value (sugar beet; [3]) was 7 and the “Sugarbeets plant response rating” value (sugar beet; [4]) was 0. For the same compound, the “Sugarbeets plant response rating” value (sugar beet; [5]) was 0, the “Sugarbeets plant response rating (0 to 10 scale)” value (sugar beet; Preemergence, Rate 250 g/ha) was 0 and the “Sugarbeets plant response rating” value (sugar beet; [6]) was 5. For the same compound, the “Plant response rating, Sugarbeets” value (sugar beet; [7]) was 3, the “Velvetleaf plant response rating” value (velvetleaf; [1]) was 0 and the “Plant response rating, Velvetleaf” value (velvetleaf; [3]) was 3. The “Velvetleaf plant response rating” value (velvetleaf; [4]) was 0, the “Velvetleaf plant response rating” value (velvetleaf; [5]) was 0 and the “Velvetleaf plant response rating (0 to 10 scale)” value (velvetleaf; Preemergence, Rate 250 g/ha) was 0. For the same compound, the “Velvetleaf plant response rating” value (velvetleaf; [6]) was 0, the “Plant response rating, Velvetleaf” value (velvetleaf; [7]) was 2 and the “Wheat plant response rating” value (wheat; [1]) was 0. The “Plant response rating, Wheat” value (wheat; [3]) was 3, the “Wheat plant response rating” value (wheat; [4]) was 0 and the “Wheat plant response rating” value (wheat; [5]) was 0. For the same compound, the “Wheat plant response rating (0 to 10 scale)” value (wheat; Preemergence, Rate 250 g/ha) was 0, the “Wheat plant response rating” value (wheat; [6]) was 4 and the “Plant response rating, Wheat” value (wheat; [7]) was 0. The “Nutsedge plant response rating” value (purple nutsedge; [1]) was 0, the “Nutsedge plant response rating” value (purple nutsedge; [2]) was 0 and the “Plant response rating, Nutsedge” value (purple nutsedge; [3]) was 0. For the same compound, the “Nutsedge plant response rating” value (purple nutsedge; [4]) was 0, the “Nutsedge plant response rating” value (purple nutsedge; [5]) was 0 and the “Nutsedge plant response rating (0 to 10 scale)” value (purple nutsedge; Preemergence, Rate 250 g/ha) was 0. For the same compound, the “Nutsedge plant response rating” value (purple nutsedge; [6]) was 0, the “Plant response rating, Nutsedge” value (purple nutsedge; [7]) was 0 and the “Plant response rating, S. Flatsedge (0 to 10 scale, 0 is no effect, 10 is complete control)” value (smallflower flatsedge; [8]) was 0. The “S. Flatsedge plant response rating (0 to 10 scale, 0 is no effect, 10 is complete control)” value (smallflower flatsedge; [9]) was 0, the “S. Flatsedge plant response rating” value (smallflower flatsedge; [10]) was 0 and the “S. Flatsedge plant response rating” value (smallflower flatsedge; [11]) was 0. The “Plant response rating, Ducksalad (0 to 10 scale, 0 is no effect, 10 is complete control)” value (duck salad; [8]) was 0, the “Ducksalad plant response rating (0 to 10 scale, 0 is no effect, 10 is complete control)” value (duck salad; [9]) was 0 and the “Ducksalad plant response rating” value (duck salad; [10]) was 0. For the same compound, the “Ducksalad plant response rating” value (duck salad; [11]) was 0.
